Results reported in article PMC5748027, “Computer-aided design of multi-target ligands at A1R, A2AR and PDE10A, key proteins in neurodegenerative diseases” (Journal of Cheminformatics, 2017).

Tests used:
[1] = biological target: T1, A1 human adenosine receptor (A1R) (Homo sapiens, UniProt P30542); assay: Radioligand binding competition assay, human A1 receptor in transfected CHO cells; details: for inhibition at 0.1 µM: 0.1 µM compound, read-out: % displacement at 0.1 μM (A1R); for Ki: Cheng-Prusoff approximation
T1 construct: expressed in transfected cells; host or cells: CHO
T1 sequence (P30542 1-326): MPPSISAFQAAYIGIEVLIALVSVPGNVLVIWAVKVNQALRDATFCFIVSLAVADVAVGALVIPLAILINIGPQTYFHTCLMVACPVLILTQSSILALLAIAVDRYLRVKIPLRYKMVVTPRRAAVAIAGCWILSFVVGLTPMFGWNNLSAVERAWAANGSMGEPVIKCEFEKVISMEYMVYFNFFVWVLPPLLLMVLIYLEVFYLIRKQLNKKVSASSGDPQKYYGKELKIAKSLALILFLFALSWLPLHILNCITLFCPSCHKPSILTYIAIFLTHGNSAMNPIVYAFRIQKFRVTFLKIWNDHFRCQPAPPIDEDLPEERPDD
Protocol: Pharmacological evaluation was performed in a radioligand binding competition assay, using A1, A2A, A2B, and A3 human receptors expressed in transfected CHO (A1), HeLa (A2A and A3), and HEK-293 (A2B) according to the procedure reported by Bosch et al. [78].

[2] = biological target: T2, human PDE7A (Homo sapiens, UniProt Q13946); assay: Phosphodiesterase activity, AD293 cells transiently transfected with human PDE7A; format: biochemical; details: for inhibition at 10 µM: 10 µM compound, read-out: Percentage inhibition at 10µM (PDE7A)
T2 construct: expressed in transfected cells; host or cells: AD293 (transient transfection)
Protocol: (§1) The activity measurements against the phosphodiesterases PDE7A, PDE7B, PDE9A and PDE10A were performed using AD293 cells that were transiently and separately transfected with human PDE7A, PDE7B, PDE9A, and PDE10A following the procedure described by Shipe et al..

[3] = biological target: T3, A2A human adenosine receptor (A2AR) (Homo sapiens, UniProt P29274); assay: Radioligand binding competition assay, human A2A receptor in transfected HeLa cells; details: for % displacement at 0.1 μM (A2AR): 0.1 µM compound; for Ki: Cheng-Prusoff approximation
T3 construct: expressed in transfected cells; host or cells: HeLa
Protocol: (§2) Bioactivity testing was performed using A1 and A2A human adenosine receptors expressed in transfected CHO (A1) and HeLa (A2A) cells, as well as AD293 cells that were transiently transfected with human PDE10A. Table 1 includes the list of synthesized 4,6-substituted 2-amino-pyridin-3-carbonitriles, along with their Ki values against A1R, A2AR, and IC50 values against PDE10A.
(§3) Pharmacological evaluation was performed in a radioligand binding competition assay, using A1, A2A, A2B, and A3 human receptors expressed in transfected CHO (A1), HeLa (A2A and A3), and HEK-293 (A2B) according to the procedure reported by Bosch et al..

[4] = biological target: T4, A3 human receptor (A3R) (Homo sapiens, UniProt P0DMS8); assay: Radioligand binding competition assay, human A3 receptor in transfected HeLa cells; details: 0.1 µM compound; read-out: percentage displacement at 0.1µM (A3R)
T4 construct: expressed in transfected cells; host or cells: HeLa
T4 sequence (P0DMS8 1-318): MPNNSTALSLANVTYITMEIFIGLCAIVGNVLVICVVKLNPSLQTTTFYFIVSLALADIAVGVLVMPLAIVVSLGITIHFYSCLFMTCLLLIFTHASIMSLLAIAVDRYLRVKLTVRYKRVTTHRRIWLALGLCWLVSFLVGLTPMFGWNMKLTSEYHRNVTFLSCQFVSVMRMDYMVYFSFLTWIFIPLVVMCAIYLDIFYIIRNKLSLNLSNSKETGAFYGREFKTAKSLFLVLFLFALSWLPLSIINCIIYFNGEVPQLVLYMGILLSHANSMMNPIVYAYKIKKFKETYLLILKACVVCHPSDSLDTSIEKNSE
Protocol: as §3

[5] = biological target: T5, human PDE10A (Homo sapiens, UniProt Q9Y233); assay: Phosphodiesterase activity, AD293 cells transiently transfected with human PDE10A; format: biochemical; details: for IC50: mean of 3 experiments in duplicate; for inhibition at 10 µM: read-out: % inhibition at 10 μM (PDE10A), 10 μM compound
T5 construct: expressed in transfected cells; host or cells: AD293 (transient transfection)
Protocol: as §2, §1

[6] = biological target: T6, human PDE9A (Homo sapiens, UniProt O76083); assay: Phosphodiesterase activity, AD293 cells transiently transfected with human PDE9A; format: biochemical; details: 10 µM compound; read-out: Percentage inhibition at 10µM (PDE9A)
T6 construct: expressed in transfected cells; host or cells: AD293 (transient transfection)
Protocol: as §1

[7] = biological target: T7, human PDE7B (Homo sapiens, UniProt Q9NP56); assay: Phosphodiesterase activity, AD293 cells transiently transfected with human PDE7B; format: biochemical; details: for inhibition at 10 µM: 10 µM compound, read-out: Percentage inhibition at 10µM (PDE7B)
T7 construct: expressed in transfected cells; host or cells: AD293 (transient transfection)
Protocol: as §1

[8] = biological target: T8, A2B human receptor (A2BR) (Homo sapiens, UniProt P29275); assay: Radioligand binding competition assay, human A2B receptor in transfected HEK-293 cells; details: 0.1 µM compound; read-out: percentage displacement at 0.1µM (A2BR)
T8 construct: expressed in transfected cells; host or cells: HEK-293
T8 sequence (P29275 1-332): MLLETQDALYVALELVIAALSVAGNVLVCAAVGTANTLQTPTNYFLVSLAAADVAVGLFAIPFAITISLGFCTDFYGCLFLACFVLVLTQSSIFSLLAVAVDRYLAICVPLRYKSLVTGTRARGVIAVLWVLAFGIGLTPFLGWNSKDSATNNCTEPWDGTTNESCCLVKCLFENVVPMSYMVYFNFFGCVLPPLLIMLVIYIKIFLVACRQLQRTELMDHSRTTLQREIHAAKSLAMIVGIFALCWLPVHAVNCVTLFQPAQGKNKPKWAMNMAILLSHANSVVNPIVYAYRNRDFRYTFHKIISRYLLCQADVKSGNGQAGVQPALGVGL
Protocol: as §3

T7 sequence (Q9NP56 whole entry): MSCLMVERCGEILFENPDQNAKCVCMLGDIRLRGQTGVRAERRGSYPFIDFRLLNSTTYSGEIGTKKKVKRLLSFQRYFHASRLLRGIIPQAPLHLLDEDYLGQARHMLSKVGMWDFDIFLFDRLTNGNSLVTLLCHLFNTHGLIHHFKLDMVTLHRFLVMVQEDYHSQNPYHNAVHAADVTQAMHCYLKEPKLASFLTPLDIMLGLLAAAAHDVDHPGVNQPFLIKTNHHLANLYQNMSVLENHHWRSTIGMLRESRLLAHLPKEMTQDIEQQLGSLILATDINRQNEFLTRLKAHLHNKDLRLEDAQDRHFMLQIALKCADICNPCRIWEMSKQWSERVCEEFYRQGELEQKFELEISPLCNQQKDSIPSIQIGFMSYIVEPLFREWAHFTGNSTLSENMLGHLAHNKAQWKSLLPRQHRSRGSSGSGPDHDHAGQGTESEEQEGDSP
T6 sequence (O76083 whole entry): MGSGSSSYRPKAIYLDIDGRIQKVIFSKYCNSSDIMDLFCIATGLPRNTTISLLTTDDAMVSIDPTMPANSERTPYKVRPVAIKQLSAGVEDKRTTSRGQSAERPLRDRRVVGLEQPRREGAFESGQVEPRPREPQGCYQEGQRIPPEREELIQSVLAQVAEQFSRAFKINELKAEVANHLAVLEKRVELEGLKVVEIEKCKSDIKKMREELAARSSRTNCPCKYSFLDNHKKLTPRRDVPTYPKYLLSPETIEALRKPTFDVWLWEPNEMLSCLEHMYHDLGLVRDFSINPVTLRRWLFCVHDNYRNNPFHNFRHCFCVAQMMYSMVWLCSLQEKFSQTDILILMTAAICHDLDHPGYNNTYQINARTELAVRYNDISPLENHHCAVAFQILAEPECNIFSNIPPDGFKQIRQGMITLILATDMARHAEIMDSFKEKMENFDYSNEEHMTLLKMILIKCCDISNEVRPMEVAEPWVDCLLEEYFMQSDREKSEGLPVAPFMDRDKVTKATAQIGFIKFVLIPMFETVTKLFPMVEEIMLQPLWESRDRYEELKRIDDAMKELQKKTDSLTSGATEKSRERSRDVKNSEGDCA
T2 sequence (Q13946 whole entry): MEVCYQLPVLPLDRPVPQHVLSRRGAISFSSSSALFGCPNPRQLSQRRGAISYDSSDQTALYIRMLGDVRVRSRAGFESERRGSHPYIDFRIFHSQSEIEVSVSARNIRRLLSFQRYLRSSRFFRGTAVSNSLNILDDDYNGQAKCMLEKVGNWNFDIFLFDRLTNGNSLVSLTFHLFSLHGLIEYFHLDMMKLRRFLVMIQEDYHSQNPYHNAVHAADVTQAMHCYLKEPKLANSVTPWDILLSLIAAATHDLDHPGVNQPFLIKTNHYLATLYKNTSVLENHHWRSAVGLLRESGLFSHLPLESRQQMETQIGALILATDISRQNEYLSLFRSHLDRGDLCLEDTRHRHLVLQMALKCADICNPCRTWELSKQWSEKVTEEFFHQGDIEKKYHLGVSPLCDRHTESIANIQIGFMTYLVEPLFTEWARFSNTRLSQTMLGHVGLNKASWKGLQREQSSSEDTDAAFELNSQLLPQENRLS
T5 sequence (Q9Y233 267-1055 limits assumed): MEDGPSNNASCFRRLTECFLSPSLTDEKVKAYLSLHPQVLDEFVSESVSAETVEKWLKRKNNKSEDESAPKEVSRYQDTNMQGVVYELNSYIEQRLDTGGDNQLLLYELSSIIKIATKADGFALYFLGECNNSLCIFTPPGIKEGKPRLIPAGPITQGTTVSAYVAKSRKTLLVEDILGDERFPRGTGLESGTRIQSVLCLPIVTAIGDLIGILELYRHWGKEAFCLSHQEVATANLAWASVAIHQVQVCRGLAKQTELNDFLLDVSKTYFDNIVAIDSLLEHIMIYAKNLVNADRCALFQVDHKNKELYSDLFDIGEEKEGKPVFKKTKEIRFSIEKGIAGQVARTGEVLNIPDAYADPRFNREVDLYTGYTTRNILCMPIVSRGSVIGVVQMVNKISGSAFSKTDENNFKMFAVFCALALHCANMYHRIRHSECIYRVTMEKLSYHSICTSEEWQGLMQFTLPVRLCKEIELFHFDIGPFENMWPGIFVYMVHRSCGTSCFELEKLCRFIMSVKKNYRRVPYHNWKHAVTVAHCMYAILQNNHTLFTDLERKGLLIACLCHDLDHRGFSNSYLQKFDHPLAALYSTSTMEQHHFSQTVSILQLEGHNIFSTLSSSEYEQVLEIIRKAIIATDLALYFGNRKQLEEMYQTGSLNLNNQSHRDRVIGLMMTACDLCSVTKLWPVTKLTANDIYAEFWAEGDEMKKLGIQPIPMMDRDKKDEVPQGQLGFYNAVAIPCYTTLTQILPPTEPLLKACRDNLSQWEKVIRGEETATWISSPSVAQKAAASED
T3 sequence (P29274 whole entry): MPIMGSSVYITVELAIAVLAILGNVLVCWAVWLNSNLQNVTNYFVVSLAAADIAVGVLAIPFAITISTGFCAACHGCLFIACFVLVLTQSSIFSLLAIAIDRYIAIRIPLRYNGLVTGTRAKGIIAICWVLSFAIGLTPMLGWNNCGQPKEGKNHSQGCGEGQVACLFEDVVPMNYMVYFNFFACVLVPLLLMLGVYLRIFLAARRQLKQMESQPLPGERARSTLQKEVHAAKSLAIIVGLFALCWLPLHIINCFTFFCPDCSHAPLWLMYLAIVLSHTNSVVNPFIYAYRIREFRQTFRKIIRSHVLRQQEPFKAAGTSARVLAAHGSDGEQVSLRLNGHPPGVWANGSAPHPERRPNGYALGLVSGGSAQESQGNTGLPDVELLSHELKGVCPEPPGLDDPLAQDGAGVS

Compound: N#Cc1c(C2CCCCC2)cc(-c2cccs2)nc1N [Compound 11, 2-amino-4-cyclohexyl-6-(thiophen-2-yl)pyridine-3-carbonitrile]
- inhibition at 0.1 µM [1]: 16%
- inhibition at 10 µM [2]: 33%
- % displacement at 0.1 μM (A2AR) [3]: 11%
- inhibition at 0.1 µM [4]: 26%
- IC50 [5]: 1200 ± 100 nM
- inhibition at 10 µM [6]: 6%
- melting point: 160 to 162 °C
- inhibition at 10 µM [7]: 45%
- inhibition at 0.1 µM [8]: 1%

Compound: N#Cc1c(C2CCCCC2)cc(-c2ccccc2F)nc1N [Compound 9, 2-amino-4-cyclohexyl-6-(2-fluorophenyl)pyridine-3-carbonitrile]
- Ki [1]: 84 ± 8 nM
- inhibition at 10 µM [2]: 19%
- % displacement at 0.1 μM (A2AR) [3]: 34%
- inhibition at 0.1 µM [4]: 7%
- inhibition at 10 µM [5]: 68%
- inhibition at 10 µM [6]: 1%
- melting point: 126 to 127 °C
- inhibition at 10 µM [7]: 34%
- inhibition at 0.1 µM [8]: 2%

Compound: N#Cc1c(C2CCCCC2)cc(-c2ccccc2)nc1N [Compound 8, 2-amino-4-cyclohexyl-6-phenylpyridine-3-carbonitrile]
- Ki [1]: 294 ± 10 nM
- inhibition at 10 µM [2]: 26%
- % displacement at 0.1 μM (A2AR) [3]: 50%
- inhibition at 0.1 µM [4]: 13%
- selectivity over all tested off-targets ([5]; PDE10A IC50 versus lowest selectivity at PDE7B (55% inhibition at 10 µM)): twofold
- IC50 [5]: 2400 ± 200 nM
- inhibition at 10 µM [6]: 30%
- melting point: 125 to 126 °C
- inhibition at 10 µM [7]: 55%
- inhibition at 0.1 µM [8]: 1%

Compound: N#Cc1c(-c2ccc3c(c2)OCO3)cc(-c2ccccc2)nc1N [Compound 7, 2-amino-4-(2H-1,3-benzodioxol-5-yl)-6-phenylpyridine-3-carbonitrile]
- Ki [1]: 25 ± 2 nM
- inhibition at 10 µM [2]: 22%
- % displacement at 0.1 μM (A2AR) [3]: 5%
- inhibition at 0.1 µM [4]: 2%
- inhibition at 10 µM [5]: 17%
- inhibition at 10 µM [6]: 19%
- melting point: 220 to 221 °C
- inhibition at 10 µM [7]: 8%
- inhibition at 0.1 µM [8]: 1%

Compound: N#Cc1c(C2CCCCC2)cc(-c2ccco2)nc1N [Compound 13, 2-amino-4-cyclohexyl-6-(furan-2-yl)pyridine-3-carbonitrile]
- Ki [1]: 70 ± 3 nM
- inhibition at 10 µM [2]: 44%
- Ki [3]: 49 ± 4 nM
- inhibition at 0.1 µM [4]: 19%
- inhibition at 10 µM [5]: 55%
- inhibition at 10 µM [6]: 4%
- melting point: 177 to 178 °C
- inhibition at 10 µM [7]: 41%
- inhibition at 0.1 µM [8]: 3%

Compound: N#Cc1c(-c2ccccc2)cc(-c2nccs2)nc1N [Compound 3, 2-amino-4-phenyl-6-(1,3-thiazol-2-yl)pyridine-3-carbonitrile]
- inhibition at 0.1 µM [1]: 12%
- inhibition at 10 µM [2]: 24%
- % displacement at 0.1 μM (A2AR) [3]: 8%
- inhibition at 0.1 µM [4]: 6%
- IC50 [5]: 2000 ± 200 nM
- inhibition at 10 µM [6]: 5%
- melting point: 154 to 156 °C
- inhibition at 10 µM [7]: 36%
- inhibition at 0.1 µM [8]: 3%

Compound: COc1ccccc1-c1cc(-c2ccccc2F)nc(N)c1C#N [Compound 19, 2-amino-6-(2-fluorophenyl)-4-(2-methoxyphenyl)pyridine-3-carbonitrile]
- inhibition at 0.1 µM [1]: 58%
- inhibition at 10 µM [2]: 49%
- Ki [3]: 338 ± 12 nM
- inhibition at 0.1 µM [4]: 1%
- inhibition at 10 µM [5]: 73%
- inhibition at 10 µM [6]: 19%
- melting point: 187 to 188 °C
- inhibition at 10 µM [7]: 42%
- inhibition at 0.1 µM [8]: 2%

Compound: Cn1cccc1-c1cc(-c2ccccc2)c(C#N)c(N)n1 [Compound 4, 2-amino-6-(1-methyl-1H-pyrrol-2-yl)-4-phenylpyridine-3-carbonitrile]
- inhibition at 0.1 µM [1]: 26%
- inhibition at 10 µM [2]: 50%
- % displacement at 0.1 μM (A2AR) [3]: 32%
- inhibition at 0.1 µM [4]: 13%
- IC50 [5]: 3600 ± 300 nM
- inhibition at 10 µM [6]: 2%
- melting point: 152 to 153 °C
- inhibition at 10 µM [7]: 48%
- inhibition at 0.1 µM [8]: 5%

Compound: N#Cc1c(-c2ccccc2Cl)cc(-c2ccc(O)cc2)nc1N [Compound 23, 2-amino-4-(2-chlorophenyl)-6-(4-hydroxyphenyl)pyridine-3-carbonitrile]
- inhibition at 0.1 µM [1]: 2%
- IC50 [2]: 1800 nM
- % displacement at 0.1 μM (A2AR) [3]: 10%
- inhibition at 0.1 µM [4]: 1%
- IC50 [5]: 4000 ± 300 nM
- inhibition at 10 µM [6]: 25%
- melting point: 215 to 217 °C
- IC50 [7]: 7300 nM
- inhibition at 0.1 µM [8]: 8%
